Results on 17 molecules are retold here after BindingDB's records for doi:10.1016/j.bioorg.2016.12.009 (Universiti Teknologi Mara (Uitm), 2017).

As a reminder, the pIC50 is −log10 of the IC50, conventionally taken in molar units. Higher therefore signals a low IC50.

pIC50: −log10 of the molar value.

Chain of Alpha-glucosidase MAL12 (P53341 whole entry): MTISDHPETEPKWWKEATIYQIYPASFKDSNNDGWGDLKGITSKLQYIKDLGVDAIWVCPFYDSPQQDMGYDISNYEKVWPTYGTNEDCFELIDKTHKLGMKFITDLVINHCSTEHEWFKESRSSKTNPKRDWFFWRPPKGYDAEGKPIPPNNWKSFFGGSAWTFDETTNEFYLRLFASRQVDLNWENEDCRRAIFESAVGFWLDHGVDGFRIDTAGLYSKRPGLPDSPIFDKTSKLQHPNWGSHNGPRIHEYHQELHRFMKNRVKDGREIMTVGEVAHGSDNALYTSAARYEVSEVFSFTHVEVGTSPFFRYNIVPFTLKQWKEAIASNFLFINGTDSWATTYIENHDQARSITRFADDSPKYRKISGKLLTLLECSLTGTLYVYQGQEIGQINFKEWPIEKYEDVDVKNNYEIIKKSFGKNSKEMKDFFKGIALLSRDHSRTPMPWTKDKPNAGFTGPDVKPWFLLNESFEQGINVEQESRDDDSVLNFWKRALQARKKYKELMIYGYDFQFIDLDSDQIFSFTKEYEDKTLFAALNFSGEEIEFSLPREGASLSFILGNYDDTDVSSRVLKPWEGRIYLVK

The assay concerns the target Alpha-glucosidase MAL12 (Saccharomyces cerevisiae (strain ATCC 204508 / S288c), UniProt P53341). Nature of the assay: Baker's Yeast α-Glucosidase Inhibition Assay. Conditions: pH 6.8; 37 °C. The protocol: The enzyme inhibition was evaluated according to the method previously reported by Zawawi et al. [Zawawi et al., Bioorg. Chem., 23:3119] with slight modification. Various concentration of test compounds (10 μL) were dissolved in DMSO (ranging from 200 to 6.25 μg/mL) and premixed with 95 μL of 50 mM phosphate buffer (pH 6.8). Then, 25 μL of enzyme (0.0625 U/mL) in phosphate buffer saline was added into each well and the plate was incubated at 37 °C for 10 min. Afterward, 25 μl of PNPG in phosphate buffer saline (5 mM) were added and pre-read of the plate was taken by using a microplate reader (Spectrostar Nano BMG Labtech, Germany). The reaction mixture was then incubated at 37 °C for 30 min and change in absorbance at 405 nm was monitored up to 30 min. For negative control, the test samples were replaced with 10 μL of DMSO and acarbose was used as positive control. All experiments were triplicated and the results were expressed as the mean ± S.E.M of three determinations.
Consider `Cc1ccc(NC(=S)NNC(=O)c2ccc(-c3nc4cc(C)c(C)cc4[nH]3)cc2)cc1` [2-(4-(5,6-Dimethyl-1H-benzo[d]imidazol-2-yl)benzoyl)-N-(p-tolyl)hydrazinecarbothioamide (17)], for which the negative-log IC50 (pIC50) was 3.53.

Turning to `Cc1cc2nc(-c3ccc(C(=O)NNC(=S)Nc4ccc(F)cc4)cc3)[nH]c2cc1C` [2-(4-(5,6-Dimethyl-1H-benzo[d]imidazol-2-yl)benzoyl)-N-(4-fluorophenyl)hydrazinecarbothioamide (12)], the negative-log IC50 (pIC50) is 3.56. Under `Cc1cc2nc(-c3ccc(C(=O)NNC(=S)Nc4ccc(Cl)c(Cl)c4)cc3)[nH]c2cc1C` [N-(3,4-dichlorophenyl)-2-(4-(5,6-dimethyl-1H-benzo[d]imidazol-2-yl)benzoyl)hydrazinecarbothioamide (5)] stands 4.21; under `Cc1cccc(NC(=S)NNC(=O)c2ccc(-c3nc4cc(C)c(C)cc4[nH]3)cc2)c1` [2-(4-(5,6-Dimethyl-1H-benzo[d]imidazol-2-yl)benzoyl)-N-(m-tolyl)hydrazinecarbothioamide (16)], 3.66; under `Cc1cc2nc(-c3ccc(C(=O)NNC(=S)Nc4ccc(Br)cc4)cc3)[nH]c2cc1C` [N-(4-bromophenyl)-2-(4-(5,6-dimethyl-1H-benzo[d]imidazol-2-yl)benzoyl)hydrazinecarbothioamide (10)], 4.30. Turning to `COc1cccc(NC(=S)NNC(=O)c2ccc(-c3nc4cc(C)c(C)cc4[nH]3)cc2)c1` [2-(4-(5,6-Dimethyl-1H-benzo[d]imidazol-2-yl)benzoyl)-N-(3-methoxyphenyl)hydrazinecarbothioamide (8)], the pIC50 was 4.14.

`Cc1cc2nc(-c3ccc(C(=O)NNC(=S)Nc4cccc(Br)c4)cc3)[nH]c2cc1C` [N-(3-bromophenyl)-2-(4-(5,6-dimethyl-1H-benzo[d]imidazol-2-yl)benzoyl)hydrazinecarbothioamide (6)] had a negative logarithm of the IC50 (pIC50) of 3.75.

The molecule `Cc1cc2nc(-c3ccc(C(=O)NNC(=S)Nc4ccccc4Br)cc3)[nH]c2cc1C` [N-(2-bromophenyl)-2-(4-(5,6-dimethyl-1H-benzo[d]imidazol-2-yl)benzoyl)hydrazinecarbothioamide (1)] had a pIC50 of 3.89. `COc1ccc(NC(=S)NNC(=O)c2ccc(-c3nc4cc(C)c(C)cc4[nH]3)cc2)cc1` [2-(4-(5,6-Dimethyl-1H-benzo[d]imidazol-2-yl)benzoyl)-N-(4-methoxyphenyl)hydrazinecarbothioamide (13)] had a pIC50 of 3.52. `COc1ccccc1NC(=S)NNC(=O)c1ccc(-c2nc3cc(C)c(C)cc3[nH]2)cc1` [2-(4-(5,6-Dimethyl-1H-benzo[d]imidazol-2-yl)benzoyl)-N-(2-methoxyphenyl)hydrazinecarbothioamide (4)] had a negative-log IC50 (pIC50) of 3.46. The pIC50 values of the last two molecules are within 0.2 log units of each other. `Cc1cc2nc(-c3ccc(C(=O)NNC(=S)Nc4ccccc4F)cc3)[nH]c2cc1C` [2-(4-(5,6-dimethyl-1H-benzo[d]imidazol-2-yl)benzoyl)-N-(2-fluorophenyl)hydrazinecarbothioamide (3)] had a pIC50 of 3.64. Under `Cc1cc2nc(-c3ccc(C(=O)NNC(=S)Nc4ccc([N+](=O)[O-])cc4)cc3)[nH]c2cc1C` [2-(4-(5,6-Dimethyl-1H-benzo[d]imidazol-2-yl)benzoyl)-N-(4-nitrophenyl)hydrazinecarbothioamide (14)] stands 4.45; under `Cc1cc2nc(-c3ccc(C(=O)NNC(=S)Nc4ccc(Cl)cc4)cc3)[nH]c2cc1C` [N-(4-chlorophenyl)-2-(4-(5,6-dimethyl-1H-benzo[d]imidazol-2-yl)benzoyl)hydrazinecarbothioamide (11)], 3.73; under `Cc1cc2nc(-c3ccc(C(=O)NNC(=S)Nc4ccccc4Cl)cc3)[nH]c2cc1C` [N-(2-chlorophenyl)-2-(4-(5,6-dimethyl-1H-benzo[d]imidazol-2-yl)benzoyl)hydrazinecarbothioamide (2)], 3.55. Under `Cc1cc2nc(-c3ccc(C(=O)NNC(=S)Nc4cccc(F)c4)cc3)[nH]c2cc1C` [2-(4-(5,6-Dimethyl-1H-benzo[d]imidazol-2-yl)benzoyl)-N-(3-fluorophenyl)hydrazinecarbothioamide (7)] stands 3.61.

`Cc1cc2nc(-c3ccc(C(=O)NNC(=S)Nc4ccc(C(F)(F)F)cc4)cc3)[nH]c2cc1C` [2-(4-(5,6-Dimethyl-1H-benzo[d]imidazol-2-yl)benzoyl)-N-(4(trifluoromethyl)phenyl)hydrazinecarbothioamide (15)] had a pIC50 of 3.79.

Regarding `Cc1cc2nc(-c3ccc(C(=O)NNC(=S)Nc4cccc([N+](=O)[O-])c4)cc3)[nH]c2cc1C` [2-(4-(5,6-Dimethyl-1H-benzo[d]imidazol-2-yl)benzoyl)-N-(3-nitrophenyl)hydrazinecarbothioamide (9)], the negative-log IC50 (pIC50) is 3.93. This pIC50 and that of the molecule before are within 0.2 log units of each other.
